Values of other authors as cited in US20190201418A1, “TREATMENT OF UTERINE FIBROIDS BY INTRAVAGINAL ADMINISTRATION OF A LOW DOSE OF SELECTIVE PROGESTERONE RECEPTOR MODULATOR (SPRM), ANTI-PROGESTIN, OR ANTI-PROGESTATIONAL AGENT” (ARSTAT, INC., priority 2011, published 2019).

Legend:
glucocorticoid blockade = conditions: in vivo
liver enzymes = conditions: oral
[1] = test system: endometrial lining of the uterus; conditions: oral
[2] = test system: symptomatic uterine fibroids; conditions: oral 5-mg and 10-mg tablets, Phase III
[3] = oral mifepristone 10 mg/day or higher

CC#C[C@]1(O)CC[C@H]2[C@@H]3CCC4=CC(=O)CCC4=C3[C@@H](c3ccc(N(C)C)cc3)C[C@@]21C [mifepristone]
dose at which glucocorticoid blockade is reported (glucocorticoid blockade): ≥ 50 mg
reduction of uterine volume and incidence of amenorrhea (uterine fibroids; oral mifepristone 2.5 mg/day): appreciably smaller reduction of uterine volume and a lower incidence of amenorrhea
ability to reduce uterine volume and eliminate fibroid-related symptoms (uterine fibroids; oral mifepristone 5 mg): limited
incidence of side effects (endometrial hyperplasia, hot flashes, elevated liver enzymes) (uterine fibroids; [3]): seems to be greater than desired
reduction of uterine and fibroid volumes and related symptoms (uterine fibroids; [3]): effective in the reduction of uterine and fibroid volumes and related symptoms

COCC(=O)[C@@]1(OC(C)=O)CC[C@H]2[C@@H]3CCC4=CC(=O)CCC4=C3[C@@H](c3ccc(N(C)C)cc3)C[C@@]21C [CDB-4124]
safety finding leading to suspension of the Phase III studies (liver enzymes): significant increases in liver enzymes

COC[C@]1(OC)CC[C@H]2[C@@H]3CCC4=CC(=O)CCC4=C3[C@@H](c3ccc(/C=N/O)cc3)C[C@@]21C [asoprisnil]
safety finding leading to termination of the Phase III studies [1]: changes in the endometrial lining of the uterus that resulted in additional invasive procedures in some patients

CC(=O)O[C@]1(C(C)=O)CC[C@H]2[C@@H]3CCC4=CC(=O)CCC4=C3[C@@H](c3ccc(N(C)C)cc3)C[C@@]21C [ulipristal acetate]
efficacy and safety in the treatment of symptomatic uterine fibroids [2]: confirmed the efficacy and safety
